This is an account of results in US7994209B2, “3-phenoxymethylpyrrolidine compounds” (Theravance, Inc., priority 2009, dated 2011).

One experiment addresses hSERT (Homo sapiens, UniProt P31645). As to the kind of experiment: hSERT membrane radioligand binding assay (3H-citalopram), Assay 1. The note with it: SERT pKi, hSERT HEK-293 membranes, 1.0 nM 3H-citalopram; values given as lower bounds.
The target in another experiment is hNET (Homo sapiens, UniProt P23975). The experiment can be described thus: hNET membrane radioligand binding assay (3H-nisoxetine), Assay 1.
hNET, sequence (P23975 whole entry): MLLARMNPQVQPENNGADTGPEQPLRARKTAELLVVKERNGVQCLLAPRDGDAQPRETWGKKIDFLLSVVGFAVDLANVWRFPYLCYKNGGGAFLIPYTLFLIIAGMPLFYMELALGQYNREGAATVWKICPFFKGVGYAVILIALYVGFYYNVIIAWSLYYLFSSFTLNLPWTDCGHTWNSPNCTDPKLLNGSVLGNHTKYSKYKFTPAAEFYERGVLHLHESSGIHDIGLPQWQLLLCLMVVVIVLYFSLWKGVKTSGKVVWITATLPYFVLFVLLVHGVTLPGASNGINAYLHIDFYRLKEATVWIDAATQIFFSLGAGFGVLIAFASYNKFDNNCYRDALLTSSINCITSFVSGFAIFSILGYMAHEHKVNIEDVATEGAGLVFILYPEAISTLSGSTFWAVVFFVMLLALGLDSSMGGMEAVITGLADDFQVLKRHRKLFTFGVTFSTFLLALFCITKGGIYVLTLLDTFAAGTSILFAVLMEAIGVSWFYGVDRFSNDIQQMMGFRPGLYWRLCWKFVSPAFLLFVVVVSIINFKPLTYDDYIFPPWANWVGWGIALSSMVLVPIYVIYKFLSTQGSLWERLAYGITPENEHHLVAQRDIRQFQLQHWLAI

Each structure is given as a SMILES string. Bounds are passed on as bounds.

hSERT, sequence (P31645 whole entry): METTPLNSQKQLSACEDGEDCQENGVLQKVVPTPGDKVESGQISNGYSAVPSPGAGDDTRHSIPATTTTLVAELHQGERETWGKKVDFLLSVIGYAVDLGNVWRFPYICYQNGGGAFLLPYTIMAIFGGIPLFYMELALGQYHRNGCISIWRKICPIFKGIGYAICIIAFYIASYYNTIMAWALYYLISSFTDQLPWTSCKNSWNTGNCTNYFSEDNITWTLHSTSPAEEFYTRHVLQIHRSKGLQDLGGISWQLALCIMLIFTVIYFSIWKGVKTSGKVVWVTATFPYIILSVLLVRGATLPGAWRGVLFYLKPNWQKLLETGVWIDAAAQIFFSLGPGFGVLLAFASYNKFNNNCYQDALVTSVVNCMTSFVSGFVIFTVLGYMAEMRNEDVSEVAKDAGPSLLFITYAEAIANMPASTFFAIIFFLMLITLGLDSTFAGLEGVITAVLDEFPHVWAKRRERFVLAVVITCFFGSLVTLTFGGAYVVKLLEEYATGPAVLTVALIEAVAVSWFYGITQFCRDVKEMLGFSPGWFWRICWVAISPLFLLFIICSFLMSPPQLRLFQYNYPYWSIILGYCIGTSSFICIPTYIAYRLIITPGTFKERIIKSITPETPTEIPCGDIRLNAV
Procedure for hSERT: Membrane radioligand binding assays were used to measure inhibition of labeled ligand (^3H-citalopram or ^3H-nisoxetine or ^3H-WIN35428) binding to membranes prepared from cells expressing the respective human recombinant transporter (hSERT or hNET or hDAT) in order to determine the pKi values of test compounds at the transporters.
Recombinant human embryonic kidney (HEK-293) derived cell lines stably transfected with hSERT or hNET, respectively, were grown in DMEM medium supplemented with 10% dialyzed FBS (for hSERT) or FBS (for hNET), 100 μg/mL penicillin, 100 μg/mL streptomycin, 2 mM L-glutamine and 250 μg/mL of the aminoglycoside antibiotic G418, in a 5% CO2 humidified incubator at 37° C. When cultures reached 80% confluence, the cells were washed thoroughly in PBS (without Ca^2+ and Mg^2+) and lifted with 5 mM EDTA in PBS. Cells were pelleted by centrifugation, resuspended in lysis buffer (10 mM Tris-HCl, pH7.5 containing 1 mM EDTA), homogenized, pelleted by centrifugation, then resuspended in 50 mM Tris-HCl, pH 7.5 and 10% sucrose at 4° C. Protein concentration of the membrane suspension was determined using a Bio-Rad Bradford Protein Assay kit. Membranes were snap frozen and stored at −80° C.
Binding assays were performed in a 96-well assay plate in a total volume of 200 μl assay buffer (50 mM Tris-HCl, 120 mM NaCl, 5 mM KCl, pH 7.4) with 0.5, 1, and 3 μg membrane protein, for SERT, NET and DAT, respectively.
Stock solutions (10 mM in DMSO) of test compound were prepared and serial dilutions made using Dilution Buffer (50 mM Tris-HCl, 120 mM NaCl, 5 mM KCl, pH 7.4, 0.1% BSA, 400 μM ascorbic acid).
Following a 60 minute incubation at 22° C. (or a period sufficient to reach equilibrium), the membranes were harvested by rapid filtration over a 96-well UniFilter GF/B plate, pretreated with 0.3% polyethyleneimine, and washed 6 times with 300 μl wash buffer (50 mM Tris-HCl, 0.9% NaCl, pH 7.5 at 4° C.). Plates were dried overnight at room temperature, approximately 45 μl of MicroScint™-20 (Perkin Elmer) added and bound radioactivity quantitated via liquid scintillation spectroscopy. Inhibition curves and saturation isotherms were analyzed using GraphPad Prism Software package (GraphPad Software, Inc., San Diego, Calif.). IC50 values were generated from concentration response curves using the Sigmoidal Dose Response (variable slope) algorithm in Prism GraphPad.

Usually Ki stands for a measure of affinity in units of concentration, obtained from inhibition or displacement. A higher Ki goes with weaker binding. On to `FC(F)(F)c1ccc(O[C@@H](C2CC2)[C@H]2CCNC2)cc1` [Example 16-104, (S)-3-[(S)cyclopropyl-(4-trifluoromethylphenoxy)methyl]pyrrolidine], for which the figures for the Ki on hSERT and at hNET were no more than 10 nM and no more than 100 nM, respectively.

In the case of `CC(C)[C@@H](Oc1ccc(Cl)cc1Cl)[C@H]1CCNC1` [Example 6-22, (S)-3-[(R)-1-(2,4-Dichlorophenoxy)-2-methylpropyl]pyrrolidine], the values for the Ki on hSERT and on hNET were no more than 10 nM and no more than 100 nM, respectively.

For the compound `CC(C)C[C@@H](Oc1ccc(C(F)(F)F)cc1)[C@H]1CCNC1` [Example 10-17, (S)-3-[(R)-3-Methyl-1-(4-trifluoromethylphenoxy)butyl]pyrrolidine], the Ki at hSERT was no more than 10 nM; on hNET it was no more than 100 nM.

Regarding `CC(C)[C@H](Oc1ccccc1[N+](=O)[O-])[C@H]1CCNC1` [Example 6-53, (S)-3-[(S)-2-Methyl-1-(2-nitrophenoxy)propyl]pyrrolidine], the Ki was no more than 100 nM on hSERT and no more than 10 nM on hNET.

Regarding `CCC[C@H](Oc1cccc(Cl)c1Cl)[C@@H]1CCNC1` [Example 4-24, (R)-3-[(S)-1-(2,3-Dichlorophenoxy)butyl]pyrrolidine], the Ki is no more than 10 nM at hSERT and no more than 100 nM at hNET.

Regarding `CCC[C@@H](Oc1c(Cl)cccc1Cl)[C@H]1CCNC1` [Example 4-34, (S)-3-[(R)-1-(2,6-Dichlorophenoxy)butyl]pyrrolidine], the Ki was no more than 100 nM at hSERT and no more than 10 nM on hNET.

On to `Clc1ccc(O[C@H](C2CC2)[C@H]2CCNC2)cc1` [Example 16-102, (S)-3-[(R)-(4-Chlorophenoxy)cyclopropylmethyl]pyrrolidine], for which the inhibition constant Ki on hSERT is no more than 10 nM; on hNET it was no more than 100 nM.

As to `CCC[C@@H](Oc1c(Cl)cccc1Cl)[C@@H]1CCNC1` [Example 4-36, (R)-3-[(R)-1-(2,6-Dichlorophenoxy)butyl]pyrrolidine], the Ki on hSERT and on hNET was no more than 100 nM throughout.

Take `FC(F)(F)c1cc(Cl)ccc1O[C@H](C1CC1)[C@@H]1CCNC1` [Example 16-36, (R)-3-[(R)-(4-Chloro-2-trifluoromethylphenoxy)cyclopropylmethyl]pyrrolidine]: the inhibition constant (Ki) at hSERT and at hNET was no more than 100 nM throughout.

As for `FC(F)(F)c1c(Cl)cccc1O[C@H](C1CC1)[C@H]1CCNC1` [Example 16-17, (S)-3-[(R)-(3-Chloro-2-trifluoromethylphenoxy)cyclopropylmethyl]pyrrolidine], the Ki at hSERT was no more than 10 nM; at hNET, no more than 100 nM.

In the case of `CCCC[C@@H](Oc1ccc(C(F)(F)F)cc1)[C@H]1CCNC1` [Example 8-5, (S)-3-[(R)-1-(4-Trifluoromethylphenoxy)pentyl]pyrrolidine], the inhibitory constant (Ki) at hSERT was no more than 10 nM; at hNET it was no more than 100 nM.

`CC(C)CC(Oc1ccccc1F)C1CCNC1` (stereo not shown) [Example 10-2, 3-[1-(2-Fluorophenoxy)-3-methylbutyl]pyrrolidine]: the Ki on hSERT is no more than 100 nM; at hNET it was no more than 10 nM.

For `CC[C@@H](Oc1c(F)cccc1Cl)[C@H]1CCNC1` [Example 2-26, (S)-3-[(R)-1-(2-Chloro-6-fluorophenoxy)propyl]pyrrolidine], the Ki was no more than 100 nM at hSERT and no more than 10 nM on hNET.

On to `CCC[C@H](Oc1ccccc1Cl)[C@@H]1CCNC1` [Example 4-21, (R)-3-[(S)-1-(2-Chlorophenoxy)butyl]pyrrolidine], for which the Ki at hSERT and on hNET was no more than 100 nM each time.

On to `CCC[C@H](Oc1ccc(Cl)cc1C)[C@@H]1CCNC1` [Example 4-59, (R)-3-[(S)-1-(4-Chloro-2-methylphenoxy)butyl]pyrrolidine], for which the Ki at hSERT and on hNET was no more than 10 nM throughout.

For the compound `CC[C@H](Oc1cccc(Cl)c1C(F)(F)F)[C@@H]1CCNC1` [Example 2-73, (R)-3-[(S)-1-(3-Chloro-2-trifluoromethylphenoxy)propyl]pyrrolidine], the Ki was no more than 10 nM on hSERT and no more than 100 nM at hNET.

`Clc1ccc(O[C@H](C2CC2)[C@@H]2CCNC2)c(Cl)c1` [Example 16-21, (R)-3-[(R)cyclopropyl-(2,4-dichlorophenoxy)methyl]pyrrolidine]: the Ki on hSERT was no more than 10 nM; at hNET, no more than 100 nM.

Consider `COc1c(Cl)cccc1O[C@@H](C1CC1)[C@H]1CCNC1` [Example 16-18, (S)-3-[(S)-(3-Chloro-2-methoxyphenoxy)cyclopropylmethyl]pyrrolidine], for which the figures for the Ki at hSERT and on hNET were no more than 100 nM and no more than 10 nM, respectively.

Regarding `CCC[C@H](Oc1ccc(Cl)cc1)[C@@H]1CCNC1` [Example 4-3, (R)-3-[(S)-1-(4-Chlorophenoxy)butyl]pyrrolidine], the Ki at hSERT is no more than 10 nM; at hNET it was no more than 100 nM.

For the compound `CC[C@@H](Oc1ccc(Cl)cc1)[C@@H]1CCNC1` [Example 2-3, (R)-3-[(R)-1-(4-Chlorophenoxy)propyl]pyrrolidine], the Ki is no more than 10 nM on hSERT and no more than 100 nM on hNET.

For the compound `Fc1cc(O[C@H](C2CC2)[C@@H]2CCNC2)ccc1Cl` [Example 16-92, (R)-3-[(R)-(4-Chloro-3-fluorophenoxy)cyclopropylmethyl]pyrrolidine], the Ki at hSERT was no more than 10 nM; on hNET, no more than 100 nM.

For the compound `Cc1cccc(Cl)c1O[C@@H](C1CC1)[C@H]1CCNC1` [Example 16-45, (S)-3-[(S)-(2-Chloro-6-methylphenoxy)cyclopropylmethyl]pyrrolidine], the results for the inhibition constant Ki at hSERT and at hNET were no more than 100 nM and no more than 10 nM, respectively.

Consider `COc1cc(F)ccc1O[C@@H](C1CC1)[C@H]1CCNC1` [Example 16-40, (S)-3-[(S)cyclopropyl-(4-fluoro-2-methoxyphenoxy)methyl]pyrrolidine], for which the Ki was no more than 100 nM at hSERT and no more than 10 nM on hNET.

Regarding `Clc1cc(Cl)cc(OC(C2CCCCC2)C2CCNC2)c1` (stereo not shown) [Example 20-6, 3-[Cyclohexyl-(3,5-dichlorophenoxy)methyl]pyrrolidine], the Ki on hSERT and at hNET was no more than 10 nM throughout.

On to `CC(C)C(Oc1c(Cl)cccc1Cl)C1CCNC1` (stereo not shown) [Example 6-27, 3-[1-(2,6-Dichlorophenoxy)-2-methylpropyl]pyrrolidine], for which the Ki on hSERT is no more than 100 nM; on hNET, no more than 10 nM.

As to `CC[C@@H](Oc1c(F)ccc(Cl)c1F)[C@H]1CCNC1` [Example 2-53, (S)-3-[(R)-1-(3-Chloro-2,6-difluorophenoxy)propyl]pyrrolidine], the Ki on hSERT was no more than 100 nM; on hNET, no more than 10 nM.

Turning to `COc1ccc(Cl)c(O[C@@H](C2CC2)[C@H]2CCNC2)c1F` [Example 16-70, (S)-3-[(S)-(6-Chloro-2-fluoro-3-methoxyphenoxy)cyclopropylmethyl]pyrrolidine], the results for the inhibition constant (Ki) on hSERT and on hNET were no more than 100 nM and no more than 10 nM, respectively.

Regarding `Cc1cc(Cl)ccc1O[C@H](C(C)C)[C@H]1CCNC1` [Example 6-44, (S)-3-[(R)-1-(4-Chloro-2-methylphenoxy)-2-methylpropyl]pyrrolidine], the inhibition constant (Ki) at hSERT is no more than 10 nM; at hNET it was no more than 100 nM.

Take `Cc1cc(Cl)ccc1O[C@@H](CC(C)C)[C@@H]1CCNC1` [Example 10-46, (R)-3-[(S)-1-(4-Chloro-2-methylphenoxy)-3-methylbutyl]pyrrolidine]: the Ki was no more than 10 nM on hSERT and no more than 100 nM on hNET.
